Assay results reported in patent US10208033B2, “β-carboline, dihydro-β-carboline and tetrahydro-β-carboline alkaloid derivatives and preparation methods same and use in aspects of preventing and treating plant viruses, fungicides and insecticides” (NANKAI UNIVERSITY, priority 2013, dated 2019).
Structures can show the parent of a compound that is named as a salt. Where two headings read alike, the source gives them in different places.

Assays:
[1] = test system: cucumber fusarium wilt; experiment: Fungicidal (bactericidal) activity in vitro, PDA colony diameter; format: cell-based; conditions: for inhibition of growth at 50 mg/kg: Fusarium, 96 h
[2] = test system: Cercospora arachidicola; experiment: as above; format: cell-based; conditions: for inhibition of growth at 50 mg/kg: Mycosphaerella arachidis, 96 h
[3] = test system: Macrophoma kawatsukai; experiment: as above; format: cell-based
[4] = test system: Alternaria solani; experiment: as above; format: cell-based; conditions: for inhibition of growth at 50 mg/kg: Alternaria solani, 96 h
[5] = test system: Fusarium graminearumt; experiment: microbe, parasite or virus in culture; format: cell-based; conditions: for inhibition of growth at 50 mg/kg: Fusarium, 96 h, read-out: Bactericidal activity (%) Fusarium graminearumt; for Bactericidal activity (%) Fusarium graminearumt: 50 mg/kg
[6] = test system: potato late blight; experiment: microbe, parasite or virus in culture; format: cell-based; conditions: for inhibition of growth at 50 mg/kg: Phytophthora infestans, 96 h, read-out: Bactericidal activity (%) potato late blight
[7] = test system: Sclerotinia scleotiorum; experiment: Fungicidal (bactericidal) activity in vitro, PDA colony diameter; format: cell-based; conditions: for inhibition of growth at 50 mg/kg: Sclerotinia, 96 h
[8] = test system: Botrytis cinerea; experiment: as above; format: cell-based; conditions: for inhibition of growth at 50 mg/kg: Botrytis cinerea, 96 h
[9] = test system: Rhizoctonia solani; experiment: as above; format: cell-based; conditions: for inhibition of growth at 50 mg/kg: Rhizoctonia solani, 96 h
[10] = test system: Phytophthora capsici; experiment: as above; format: cell-based; conditions: for inhibition of growth at 50 mg/kg: Phytophthora capsici, 96 h
[11] = test system: Fusarium fujikuroi; experiment: as above; format: cell-based; conditions: for inhibition of growth at 50 mg/kg: Fusarium fujikuroi, 96 h
[12] = test system: Rhizoctonia cereali; experiment: as above; format: cell-based; conditions: for inhibition of growth at 50 mg/kg: Rhizoctonia, 96 h
[13] = test system: Bipolaria maydis; experiment: organism not typed; format: cell-based; conditions: for inhibition at 50 mg/kg: read-out: Bactericidal activity (%) Bipolaria maydis; for Bactericidal activity (%) Bipolaria maydis: 50 mg/kg
[14] = test system: Colletotrichum orbiculare; experiment: Fungicidal (bactericidal) activity in vitro, PDA colony diameter; format: cell-based; conditions: for inhibition of growth at 50 mg/kg: Colletotrichum orbiculare, 96 h
[15] = test system: tobacco mosaic virus (TMV); experiment: Anti-TMV in vitro effect (half-leaf soaking); format: cell-based, tobacco mosaic virus (host Nicotiana tabacum L.cv.Xanthi NN); conditions: for inhibition at 100 µg/mL / inhibition at 500 µg/mL: Tobacco mosaic virus, read-out: Relative inhibition rate (%) In vitro activity
[16] = test system: tobacco mosaic virus (TMV); experiment: Anti-TMV in vivo inactivation; parameters: species or system tobacco mosaic virus (host Nicotiana tabacum L.cv.Xanthi NN); conditions: for inhibition at 100 µg/mL / inhibition at 500 µg/mL: Tobacco mosaic virus, read-out: Relative inhibition rate (%) In vivo inactivation
[17] = test system: tobacco mosaic virus (TMV); experiment: Anti-TMV in vivo therapeutic effect; parameters: species or system tobacco mosaic virus (host Nicotiana tabacum L.cv.Xanthi NN); conditions: for inhibition at 100 µg/mL / inhibition at 500 µg/mL: Tobacco mosaic virus, read-out: Relative inhibition rate (%) In vivo therapy
[18] = test system: tobacco mosaic virus (TMV); experiment: Anti-TMV in vivo protective effect; parameters: species or system tobacco mosaic virus (host Nicotiana tabacum L.cv.Xanthi NN); conditions: for inhibition at 100 µg/mL / inhibition at 500 µg/mL: Tobacco mosaic virus, read-out: Relative inhibition rate (%) In vivo protection
[19] = test system: armyworms; format: in vivo; conditions: concentration 600 mg/kg
[20] = test system: cotton bollworms; experiment: whole plant or invertebrate; conditions: in vivo
Procedure: Experimental method of cotton bollworms: feed and drug mixing method: measure 3 mL of prepared solution and add it to about 27 g of newly prepared feed, thereby obtaining needed concentration through dilution by 10 times.

[21] = test system: corn borers; conditions: in vivo
[22] = test system: mosquito larvae; experiment: whole plant or invertebrate; conditions: in vivo
Procedure: Experimental method of mosquito larvae: culex pipiens pallens, a normal colony raised indoors. Weigh about 5 mg of the compound for test, put it in a penicillin vial, add 5 mL of acetone (or an appropriate solvent), and shake and dissolve it to obtain a 1000 ppm mother solution. Pipette 0.5 mL of the mother solution, add it to a 100 mL beaker filled with 89.9 mL of water, select 10 mosquito larvae at the beginning of the fourth instar, and pour them to a beaker together with 10 mL of feeding solution. The concentration of the drug solution is 5 ppm. […] Use an aqueous solution containing 0.5 mL of test solvent as a blank.

COC(=O)Nc1nc2ccccc2[nH]1 [Carbendazim]
inhibition of growth at 50 mg/kg ([1]; 50 mg/kg): < 50% | inhibition of growth at 50 mg/kg ([2]; 50 mg/kg): < 50% | inhibition at 50 mg/kg ([3]; 50 mg/kg): < 50% | inhibition of growth at 50 mg/kg ([4]; 50 mg/kg): < 50% | inhibition of growth at 50 mg/kg [5]: 100% | inhibition of growth at 50 mg/kg [6]: 100% | inhibition of growth at 50 mg/kg ([7]; 50 mg/kg): 100% | inhibition of growth at 50 mg/kg [8]: < 50% | inhibition of growth at 50 mg/kg ([9]; 50 mg/kg): 100% | inhibition of growth at 50 mg/kg ([10]; 50 mg/kg): < 50% | inhibition of growth at 50 mg/kg ([11]; 50 mg/kg): < 50% | inhibition of growth at 50 mg/kg ([12]; 50 mg/kg): 100% | inhibition at 50 mg/kg [13]: 100% | inhibition of growth at 50 mg/kg ([14]; 50 mg/kg): 100%

N#Cc1c(Cl)c(Cl)c(Cl)c(C#N)c1Cl [Chlorothalonil]
inhibition of growth at 50 mg/kg ([1]; 50 mg/kg): 100% | inhibition of growth at 50 mg/kg ([2]; 50 mg/kg): 73.3% | inhibition at 50 mg/kg ([3]; 50 mg/kg): 100% | inhibition of growth at 50 mg/kg ([4]; 50 mg/kg): 73.3% | inhibition of growth at 50 mg/kg [5]: < 50% | inhibition of growth at 50 mg/kg [6]: 86.4% | inhibition of growth at 50 mg/kg ([7]; 50 mg/kg): < 50% | inhibition of growth at 50 mg/kg [8]: 100% | inhibition of growth at 50 mg/kg ([9]; 50 mg/kg): 100% | inhibition of growth at 50 mg/kg ([10]; 50 mg/kg): 100% | inhibition of growth at 50 mg/kg ([11]; 50 mg/kg): 100% | inhibition of growth at 50 mg/kg ([12]; 50 mg/kg): 100% | inhibition at 50 mg/kg [13]: 91.3% | inhibition of growth at 50 mg/kg ([14]; 50 mg/kg): 91.3%

O=C(O)[C@@H]1Cc2c([nH]c3ccccc23)[C@H](c2cccnc2)N1 [Ib-6, (1S, 3S)-1-(pyridine-3)-2,3,4,9-tetrahydropyridino [3,4-b] indol-3-formic acid]
Relative inhibition rate (%) In vitro activity ([15]; treatment dose 100 μg/mL): 0% | Relative inhibition rate (%) In vitro activity ([15]; treatment dose 500 μg/mL): 25% | Relative inhibition rate (%) In vivo inactivation ([16]; treatment dose 100 μg/mL): 0% | Relative inhibition rate (%) In vivo inactivation ([16]; treatment dose 500 μg/mL): 17.5% | Relative inhibition rate (%) In vivo therapy ([17]; treatment dose 100 μg/mL): 0% | Relative inhibition rate (%) In vivo therapy ([17]; treatment dose 500 μg/mL): 21.4% | Relative inhibition rate (%) In vivo protection ([18]; treatment dose 100 μg/mL): 0% | Relative inhibition rate (%) In vivo protection ([18]; treatment dose 500 μg/mL): 24.8% | Bactericidal activity (%) Cucumber fusarium wilt ([1]; 50 mg/kg): 26.9% | Bactericidal activity (%) Cercospora arachidicola ([2]; 50 mg/kg): 84.6% | Bactericidal activity (%) Macrophoma kawatsukai ([3]; 50 mg/kg): 61.9% | Bactericidal activity (%) Alternaria solani ([4]; 50 mg/kg): 26.3% | Bactericidal activity (%) Fusarium graminearumt [5]: 31.0% | Bactericidal activity (%) potato late blight [6]: 27.3% | Bactericidal activity (%) Sclerotinia scleotiorum ([7]; 50 mg/kg): 29.4% | Bactericidal activity (%) Botrytis cinerea [8]: 27.3% | Bactericidal activity (%) Rhizoctonia solani ([9]; 50 mg/kg): 32.9% | Bactericidal activity (%) Phytophthora capsici ([10]; 50 mg/kg): 9.4% | Bactericidal activity (%) Fusarium fujikuroi ([11]; 50 mg/kg): 14.3% | Bactericidal activity (%) Rhizoctonia cereali ([12]; 50 mg/kg): 63.2% | Bactericidal activity (%) Bipolaria maydis [13]: 36.4% | Bactericidal activity (%) Colletotrichum orbiculare ([14]; 50 mg/kg): 32.1% | Armyworm Mortality (%) [19]: 45% | Cotton bollworm Mortality (%) [20]: 20% | Corn borer Mortality (%) [21]: 40%

CCOC(=O)[C@@H]1Cc2c([nH]c3ccccc23)[C@H](c2cccnc2)N1 [Ib-11, (1S, 3S)-1-(pyridine-3)-2,3,4,9-tetrahydropyridino [3,4-b] indol-3-ethyl formate]
Bactericidal activity (%) Cucumber fusarium wilt [1]: 23.8% | Bactericidal activity (%) Cercospora arachidicola [2]: 42.9% | Bactericidal activity (%) Macrophoma kawatsukai [3]: 35.3% | Bactericidal activity (%) Alternaria solani [4]: 55.6% | Bactericidal activity (%) Fusarium graminearumt [5]: 28.6% | Bactericidal activity (%) potato late blight [6]: 35.0% | Bactericidal activity (%) Sclerotinia scleotiorum [7]: 76.0% | Bactericidal activity (%) Botrytis cinerea [8]: 40.9% | Bactericidal activity (%) Rhizoctonia solani [9]: 17.9% | Bactericidal activity (%) Phytophthora capsici [10]: 36.4% | Bactericidal activity (%) Fusarium fujikuroi [11]: 28.6% | Bactericidal activity (%) Rhizoctonia cereali [12]: 65.6% | Bactericidal activity (%) Bipolaria maydis [13]: 15.8% | Bactericidal activity (%) Colletotrichum orbiculare [14]: 42.9% | Armyworm Mortality (%) [19]: 5% | Cotton bollworm Mortality (%) [20]: 20% | Mosquito larvae Mortality (%) [22]: 15% | Corn borer Mortality (%) [21]: 5%

COc1cc2c3c(c4cc(OC)c(OC)cc4c2cc1OC)CN1CCC[C@H]1C3.O=C(O)C[C@@H](O)C(=O)O [NK-007, reference compound]
Relative inhibition rate (%) In vitro activity ([15]; treatment dose 100 μg/mL): 38.7% | Relative inhibition rate (%) In vitro activity ([15]; treatment dose 500 μg/mL): 65.4% | Relative inhibition rate (%) In vivo inactivation ([16]; treatment dose 100 μg/mL): 33.9% | Relative inhibition rate (%) In vivo inactivation ([16]; treatment dose 500 μg/mL): 65.2% | Relative inhibition rate (%) In vivo therapy ([17]; treatment dose 100 μg/mL): 34.9% | Relative inhibition rate (%) In vivo therapy ([17]; treatment dose 500 μg/mL): 67.2% | Relative inhibition rate (%) In vivo protection ([18]; treatment dose 100 μg/mL): 36.2% | Relative inhibition rate (%) In vivo protection ([18]; treatment dose 500 μg/mL): 67.9%

CNCC(=O)N[C@@H](CO)C(=O)N[C@H]1[C@H](O)[C@@H](O)[C@H](n2ccc(N)nc2=O)O[C@@H]1C(N)=O [Ningnanmycin, reference compound]
inhibition at 100 µg/mL ([15]; treatment dose 100 μg/mL): 26.8% | inhibition at 500 µg/mL ([15]; treatment dose 500 μg/mL): 73.3% | inhibition at 100 µg/mL ([16]; treatment dose 100 μg/mL): 38.4% | inhibition at 500 µg/mL ([16]; treatment dose 500 μg/mL): 68% | inhibition at 100 µg/mL ([17]; treatment dose 100 μg/mL): 20% | inhibition at 500 µg/mL ([17]; treatment dose 500 μg/mL): 54.2% | inhibition at 100 µg/mL ([18]; treatment dose 100 μg/mL): 23.1% | inhibition at 500 µg/mL ([18]; treatment dose 500 μg/mL): 65.4%

NC(=O)c1ncn([C@@H]2O[C@H](CO)[C@@H](O)[C@H]2O)n1 [Virazole, reference compound]
inhibition at 100 µg/mL ([15]; treatment dose 100 μg/mL): 15.3% | inhibition at 500 µg/mL ([15]; treatment dose 500 μg/mL): 39.5% | inhibition at 100 µg/mL ([16]; treatment dose 100 μg/mL): 12.9% | inhibition at 500 µg/mL ([16]; treatment dose 500 μg/mL): 36.3% | inhibition at 100 µg/mL ([17]; treatment dose 100 μg/mL): 11.9% | inhibition at 500 µg/mL ([17]; treatment dose 500 μg/mL): 35.4% | inhibition at 100 µg/mL ([18]; treatment dose 100 μg/mL): 16.2% | inhibition at 500 µg/mL ([18]; treatment dose 500 μg/mL): 37.6%
